Data on six compounds can be found in publication PMC9318819 (Viruses, 2022).

One data set can be described thus: in vitro. The following applies: human.
Data set [1] has as its system HIV-1 (PBL286 (02ET_14), subtype C, Ethiopian isolate). Description: Anti-HIV screening in PBMC (Southern Research Institute). The following applies: for EC50: read-out: Antiviral Activity EC50; for EC90: read-out: Antiviral Activity EC90; for inhibition at 0.08 µg/mL: read-out: inhibition of HIV replication in PBMC. The format is cell-based.
The test system of another data set is J-Lat 10.6 cells. Description: Effect of PKC inhibitors Gö 6983 and enzastaurin on LRA-induced latency reversal. Particulars: 1 μM Gö 6983. Type of data set: cell-based.
A further data set relates to Jurkat cells. Description: T cell activation, CD69 expression by flow cytometry. Type of data set: cell-based. The following applies: 24 h. (In general: Flow cytometry measures light scatter and fluorescence of single cells or particles in a stream.)
The nature of data set [2]: Primary cell viability by trypan blue counting. The format is cell-based. Particulars: human, 3 donors, read-out: viability of primary CD4+ T cells.
In data set [3] the test system is HIV provirus expression in J-Lat 10.6 T cells. In words: In vitro HIV latency reversal, GFP expression by flow cytometry. The format is cell-based. The following applies: 24 h.
Data set [4] is described as follows: Cell viability by resazurin dye. Type of data set: cell-based. The following applies: human, Jurkat T cells (Clone E6-1), parental, lacking HIV provirus, read-out: viability relative to 0.1% DMSO. Background: Alamar Blue is a resazurin reagent that responds to reducing activity.
In data set [5] the test system is HIV-1 in primary CD4+ T cells from cART-suppressed donors. In words: Ex vivo latency reversal, supernatant viral RNA by qRT-PCR. The following applies: 24 h, 3 donors. The format is cell-based. For orientation: In qPCR the cycle at which signal appears reflects the starting amount.
A further data set deals with HeLa-SXR5 cell line. In words: Cytotoxicity under deCIPhR cell culture conditions (Alamar Blue, four days). Particulars: four days of incubation, any concentration (0.08 to 5 μg/mL).
Data set [6] concerns CXCR4-tropic HIV isolate NL4-3. In words: deCIPhR in vitro anti-HIV replication assay (β-galactosidase, LTR-driven LacZ). Type of data set: cell-based.
A short description of data set [7]: PBMC viability / cytotoxicity (MTS dye). The following applies: human.
Where [8] appears, read: Human immunodeficiency virus 1, PBMC, subtype C virus.
[9] abbreviates: Human immunodeficiency virus 1, PBMC.

Each structure is given as a SMILES string. Read-outs that look alike come from different tables or passages of the source. Some results are limits rather than exact numbers.

A word on the EC50: it is the concentration at which the effect is half-maximal. What is called EC90 is the point of the concentration-response curve where the effect stands at 90%. `Cc1cn([C@H]2C[C@H](N=[N+]=[N-])[C@@H](CO)O2)c(=O)[nH]c1=O` [AZT, azidothymidine, reference compound] displayed a CC50 in “in vitro” above 1000 nM. Besides, in [1] (setting [8]), the concentration giving a half-maximal response (EC50) stood at 7 nM and the EC90 is 50 nM. In addition, the “Selectivity Index CC50/IC50” value in data set [1] (PBMC) is reported as above 142.

Turning to `Cc1[nH]c2ccccc2c1CCNCc1ccc(/C=C/C(=O)NO)cc1` [Panobinostat, reference compound], in the data set with J-Lat 10.6 cells (LRA at 0.1 μM), the “effect of Gö 6983 on latency reversal” value was “unaffected”. In the data set with Jurkat cells (0.1 μM), this compound gave a CD69-positive cells of 1.5 ± 1.3%.

By viability is commonly meant a read-out of living cells in per cent, often relative to untreated cells. Usually inhibition stands for the relative decrease from the control value, in per cent. Consider `C=C(C)C12OC3(/C=C/C=C/CCCCC)OC1C1C4OC4(CO)C(O)C4(O)C(=O)C(C)=CC4C1(O3)C(C)C2OC(=O)c1ccccc1` (stereo not shown) [Compound 2, yuanhuacine], for which the viability at 24 h, 1.5 µM was 79.6 ± 41.5% in [2] and 58.5 ± 15.9% in data set [4]. The “GFP expression (latency reversal), % of live-gated cells” value (“GFP expression (latency reversal), %” below) in data set [3] (0.15 μM) turned out to be 58.2 ± 4.7%. In the data set with Jurkat cells (0.5 μM), this compound returned a CD69-positive cells of 74.5 ± 1.3%. In data set [5] (1.5 μM), the “average fold increase in viral RNA” value was 9.1 fold. Moreover, the “average supernatant viral RNA” value in data set [5] (1.5 μM) turned out to be 297 ± 267 copies/mL. Besides, the inhibition at 0.08 µg/mL in data set [1] (setting [9]) was above 80%.

Consider `CC(=O)O[C@@]12C[C@@H](C)[C@@]3(O)[C@@H](C=C(CO)C[C@]4(O)C(=O)C(C)=C[C@@H]34)[C@@H]1C2(C)C` [prostratin, reference compound], for which, in data set [2] (10 μM), the viability at 24 h, 10 µM is 65.9 ± 12.4%. The “GFP expression (latency reversal), %” value in data set [3] (2.5 μM) is on record as 66.0 ± 5.7%. In data set [4] (0.5 μM), the viability at 24 h, 0.5 µM worked out at 56 ± 10%. Also, in the data set with J-Lat 10.6 cells (LRA at 2.5 μM), the “reduction in latency reversal by pan-PKC inhibitor Gö 6983” value was found to be 74.7 ± 17.3%. Besides, the CD69-positive cells with Jurkat cells (2.5 μM) was 73.2 ± 1.3%. In addition, in data set [5] (10 μM), the “average fold increase in viral RNA” value was 23.2 fold and the “average supernatant viral RNA” value is recorded as 755.5 ± 1144.2 copies/mL.

On to `C=C(C)C12OC3(/C=C/C=C/CCC)OC1C1C4OC4(CO)C(O)C4(O)C(=O)C(C)=CC4C1(O3)C(C)C2OC(=O)c1ccccc1` (stereo not shown) [Compound 1, yuanhuacine A], for which the “cytotoxicity (Alamar Blue)” value with HeLa-SXR5 cell line is reported as “no evidence of cytotoxicity at any concentration”. The viability at 24 h, 1.5 µM in [2] came out at 96.4 ± 32.2%. Also, in data set [3] (0.15 μM), the “GFP expression (latency reversal), %” value is given as 65.5 ± 6.3%. In addition, in data set [6] (test concentrations 0.08 to 5 μg/mL), the “inhibition of HIV replication across all test concentrations” value is 65–80%. Moreover, the viability at 24 h, 1.5 µM in data set [4] is 51.2 ± 11.2%. The compound further came in with a CD69-positive cells in the data set on Jurkat cells (0.5 μM) of 75.4 ± 2.2%. In data set [5] (1.5 μM), the “average fold increase in viral RNA” value came to 10.8 fold and the “average supernatant viral RNA” value turned out to be 352.5 ± 430.4 copies/mL. In data set [1] (setting [9]), the EC50 is 30 nM, the concentration for an effect of 90% (EC90) worked out at 90 nM and the inhibition at 0.08 µg/mL was above 80%. Further, the “Selectivity Index CC50/IC50” value in data set [1] (PBMC) is on record as above 500. Moreover, the CC50 in [7] was above 15 µM.

For `O=C1Nc2ccc(Cl)cc2[C@@](C#CC2CC2)(C(F)(F)F)O1` [efavirenz], the inhibition at 0.43 µM in data set [6] (Human immunodeficiency virus 1, NL43, 430 nM) stood at 43.9 ± 41.9%. For the same compound, in data set [6] (Human immunodeficiency virus 1, NL43, 930 nM), the inhibition at 0.93 µM is 111 ± 22.1%. Also, the inhibition at 2 µM in data set [6] (Human immunodeficiency virus 1, NL43, 2000 nM) turned out to be 107 ± 24.1%. The inhibition at 4.3 µM in data set [6] (Human immunodeficiency virus 1, NL43, 4300 nM) was 100%.
